Like-named read-outs stand apart in the source and are kept apart here.
Tests used:
RCC V = RCC V activity in submitochondrial particles; format: biochemical, rat; settings: for RCC activity V: 15 min, DMSO-treated = 100; on RCC V at 5XCmax: key: 0 indicates that the drug had no effects (negative)
Procedure, shortened: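 Rat submitochondrial particles (1 mg/ml) were treated with test compounds for 15 min. RCC IV, like RCC III, was monitored at 550 nm every 10 s for 2 min, and RCC I/V at 340 nm each minute for 6 min. DMSO samples defined unit activity.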

[1] = system: isolated rat liver mitochondria; test: Mitochondrial swelling (absorbance at 535 nm); format: biochemical; settings: for Swelling 1XCmax / Swelling 2.5XCmax / Swelling 5XCmax / Swelling 10XCmax / Swelling 20XCmax / Swelling 30XCmax / Swelling 50XCmax / Swelling 100XCmax: difference in signal between KI and DMSO treated samples at the end of experiments; for effect on mitochondrial swelling: up to 100-fold Cmax or highest testable concentration, 25 µM calcium chloride; on Swelling 5XCmax: key: 0 indicates that the drug had no effects (negative)
[2] = ref product labeling, cited from earlier work; for Labeling for cardiotoxicity: BBW: black box warning, W&P: Warnings and Precautions
[3] = cited from earlier work; for labeling for DILI: W&P warnings and precautions, BBW black box warnings
[4] = design: method as in product labeling; settings: ref product labeling, cited from earlier work; for Labeling for cardiotoxicity: BBW: black box warning, W&P: Warnings and Precautions
RCC I–V = test: Activities of RCC I–V, overall statements; format: biochemical, rat; settings: submitochondrial particles, up to 100-fold Cmax or highest testable concentration
Experimental: KIs were incubated with submitochondrial particles (1 mg/ml) for 15 min and then RCC I–V activities measured. […] The activities of DMSO-treated samples (controls) were set as 1. […] The difference between the activity from rotenone-containing buffer and rotenone-absent buffer was considered as RCC I activity. […] For measuring RCC I/V and II activity, the changes in absorbance at 340 and 600 nm, respectively, were determined every 1 min for 6 min. For measuring RCC III and RCC IV, the changes in absorbance at 550 nm were measured every 10 s for 2 min.

[5] = 1 DILI positive, 0 negative according to labeling, ref product labeling
[6] = BBW: black box warning, W&P: Warnings and Precautions, ref product labeling
[7] = relative to DMSO treated samples
[8] = 1 = DILI positive, 0 = negative, ref product labeling

SMILES	RCC V at 5XCmax (RCC V; DMSO treated samples set as 1)	RCC V at 50XCmax (RCC V; DMSO treated samples set as 1)	Swelling 1XCmax [1]	Swelling 2.5XCmax [1]	Swelling 5XCmax [1]	Swelling 10XCmax [1]	Swelling 20XCmax [1]	Swelling 30XCmax [1]	Swelling 50XCmax [1]	Swelling 100XCmax [1]	Potential for cardiotoxicity (based on labeling) [2]	DILI potential (based on labeling) [3, 5]	Labeling for DILI [3, 6]	labeling for DILI ([3]; ref FDA product labeling)	DILI potential (based on labeling) ([3]; ref FDA product labeling)	RCC V at 5XCmax (RCC V; [7])	DILI potential (based on labeling) [3, 8]	Labeling for cardiotoxicity [4]	Potential for cardiotoxicity (based on labeling) [4]	RCC V at 50XCmax (RCC V; [7])	also measured
COc1cc2nccc(Oc3ccc(NC(=O)NC4CC4)c(Cl)c3)c2cc1C(N)=O [Lenvatinib]	0	0	0	0	0	0	0	0	0	0											
O=C(c1ccc(F)c(F)c1Nc1ccc(I)cc1F)N1CC(O)([C@@H]2CCCCN2)C1 [Cobimetinib]	0	0	0	0	0	0	0	0	0	0	1	1	W&P: ALT↑	W&P: ALT↑/monitoring	1						Labeling for cardiotoxicity [2]: W&P: Cardiomyopathy
CC(=O)Nc1cccc(-n2c(=O)n(C3CC3)c(=O)c3c(Nc4ccc(I)cc4F)n(C)c(=O)c(C)c32)c1 [Trametinib]	0	0	0	0	0	0	0	0	0	0	1	0			0						Labeling for cardiotoxicity [2]: W&P: Cardiomyopathy
CCCS(=O)(=O)Nc1ccc(F)c(C(=O)c2c[nH]c3ncc(-c4ccc(Cl)cc4)cc23)c1F [Vemurafenib]			0	0	0	0	0	0	0	0			W&P: functional hepatic impairment	W&P: hepatic impairment/ALT monitoring	1	0	1	W&P: QT Prolongation	1		
CN(C)C/C=C/C(=O)Nc1cc2c(Nc3ccc(F)c(Cl)c3)ncnc2cc1O[C@H]1CCOC1 [afatinib dimaleate]	0	0	0	0	0	0	0	0	0	0	0	1	W&P: ALT↑								
CCN(CC)CCNC(=O)c1c(C)[nH]c(/C=C2\C(=O)Nc3ccc(F)cc32)c1C [sunitinib malate]			0	0	0	0	0	0	0	0						0	1	W&P: Cardiovascular events;QT Interval Prolongation and Torsade de Pointes	1	0	Labeling for DILI ([3]; in vivo): BBW: fatal DILI
Cc1nc(Nc2ncc(C(=O)Nc3c(C)cccc3Cl)s2)cc(N2CCN(CCO)CC2)n1 [dasatinib (free base)]			0	0	0	0	0	0	0	0						0	0	W&P: Cardiovascular events;QT Interval Prolongation	1	0	
N#CC[C@H](C1CCCC1)n1cc(-c2ncnc3[nH]ccc23)cn1 [ruxolitinib phosphate]			0	0	0	0	0	0	0	0						0	0		0	0	
COC(=O)c1ccc2c(c1)NC(=O)/C2=C(\Nc1ccc(N(C)C(=O)CN2CCN(C)CC2)cc1)c1ccccc1 [Nintedanib]	0	0	0	0	0	0	0	0	0	0	0	1	W&P: ALT↑	W&P: ALT↑/monitoring	1						
CNC(=O)c1ccccc1Sc1ccc2c(/C=C/c3ccccn3)n[nH]c2c1 [Axitinib]			0	0	0	0	0	0	0	0			W&P: ALT↑	W&P: ALT↑/monitoring	1	0	1	W&P: Cardiac Failure	1	0	
COc1cc(Nc2c(C#N)cnc3cc(OCCCN4CCN(C)CC4)c(OC)cc23)c(Cl)cc1Cl [Bosutinib]			0	0	0	0	0	0	0	0			W&P: ALT↑	W&P: ALT↑/monitoring	1	0	1		0	0	RCC activity V (RCC V; 100-fold Cmax): 91.53 ± 6.49 % of control
Cc1cc(Nc2ncc(Cl)c(Nc3ccccc3S(=O)(=O)C(C)C)n2)c(OC(C)C)cc1C1CCNCC1 [Ceritinib]	0	71.23±9.65	0	0	0	0	0	0	0	0.54±0.06	1	1	W&P: ALT↑	W&P: ALT↑/monitoring	1						Labeling for cardiotoxicity [2]: W&P:QT Interval Prolongation; Bradycardia; RCC activity V (RCC V; 50-fold Cmax): 71.23 ± 9.65 % of control; RCC activity V (RCC V; 100-fold Cmax): 34.25 ± 2.09 % of control; RCC V at 100XCmax (RCC V; 100XCmax, DMSO treated samples set as 1): 34.25±2.09; lowest concentration causing mitochondrial swelling [1]: 100 fold Cmax; effect on mitochondrial swelling [1]: significant mitochondrial swelling; RCCs inhibited (RCC I–V): all five RCCs
COc1cc2c(Nc3ccc(Br)cc3F)ncnc2cc1OCC1CCN(C)CC1 [Vandetanib]			0	0	0	0	0	0	0	0.22±0.06					0	0	0	BBW	1		RCC activity V (RCC V; 50-fold Cmax): 95.65 ± 4.66 % of control; RCC activity V (RCC V; 100-fold Cmax): 85.15 ± 8.36 % of control; lowest concentration causing mitochondrial swelling [1]: 100 fold Cmax; effect on mitochondrial swelling [1]: significant mitochondrial swelling

Reference: PMC5515969, “Effects of 31 FDA approved small-molecule kinase inhibitors on isolated rat liver mitochondria” (Archives of Toxicology, 2016)
